The record followed here is patent US20250353891A1 (MEDIMMUNE LIMITED, priority 2022, published 2025).

Starred links: 1 amine or outer side, 2 acyl side, 3 side chain; linkers in the order of their positions; H or OH if unused. Non-standard residues stand in square brackets, D forms with d. Residues, ends and D or L forms follow the SMILES beside them. Groups on a side chain read outwards from the residue. *: point of attachment. C20 diacid = O=C(O)CCCCCCCCCCCCCCCCCCC(=O)*; C18 diacid = O=C(O)CCCCCCCCCCCCCCCCC(=O)*; γGlu = O=C(O)[C@H](CCC(=O)[*:2])N[*:1]; αMeF = C[C@](N)(Cc1ccccc1)C(=O)O; AEEA = NCCOCCOCC(=O)O; Aib = CC(C)(N)C(=O)O

Experiment [1] addresses human GLP-1 receptor (hGLP-1R) (Homo sapiens, UniProt P43220). As to the kind of experiment: cAMP production (HTRF) in CHO cells expressing hGLP-1R. The class given is cell-based. Also on record: expressed in transfected cells. The note with it: for EC50: Table 7, peptides modified at position 20, cAMP in CHO hGLP-1R cells, geometric mean, read-out: hGLP-1R EC50; for % Relative Potency Ratio: Table 7, % GLP-1R activity relative to GLP-1 / % GlucR activity relative to glucagon. In short, it runs like this: (§1)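 Read-out: HTRF cAMP (anti-cAMP cryptate donor, cAMP-d2 acceptor in conjugate/lysis buffer), converted to % Delta F and fitted by 4-parameter logistic for EC50. Cell densities were 1×10^5 cells/mL (hGLP-1R) or 2×10^5 cells/mL (hGCGR). Stimulation lasted 30 min at room temperature.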

Experiment [2] addresses human glucagon receptor (hGCGR) (Homo sapiens, UniProt P47871). As to the kind of experiment: cAMP production (HTRF) in CHO cells expressing hGCGR. The class given is cell-based. Also on record: expressed in transfected cells. The note with it: Table 7, peptides modified at position 20; cAMP in CHO hGCGR cells; geometric mean; read-out: hGluc-R EC50. In outline: as §1

Sequence of human GLP-1 receptor (hGLP-1R) (P43220 24-463): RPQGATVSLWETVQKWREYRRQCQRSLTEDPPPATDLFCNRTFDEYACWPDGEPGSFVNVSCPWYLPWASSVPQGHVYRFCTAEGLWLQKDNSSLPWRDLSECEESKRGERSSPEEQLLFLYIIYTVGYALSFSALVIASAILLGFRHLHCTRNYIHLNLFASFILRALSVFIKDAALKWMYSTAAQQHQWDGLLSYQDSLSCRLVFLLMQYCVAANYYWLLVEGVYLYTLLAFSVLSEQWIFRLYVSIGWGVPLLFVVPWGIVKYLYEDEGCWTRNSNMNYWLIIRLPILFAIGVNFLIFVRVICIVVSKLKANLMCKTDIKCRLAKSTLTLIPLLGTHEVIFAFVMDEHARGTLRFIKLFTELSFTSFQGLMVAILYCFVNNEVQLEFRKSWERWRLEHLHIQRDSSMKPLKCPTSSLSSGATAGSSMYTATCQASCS
Sequence of human glucagon receptor (hGCGR) (P47871 26-477): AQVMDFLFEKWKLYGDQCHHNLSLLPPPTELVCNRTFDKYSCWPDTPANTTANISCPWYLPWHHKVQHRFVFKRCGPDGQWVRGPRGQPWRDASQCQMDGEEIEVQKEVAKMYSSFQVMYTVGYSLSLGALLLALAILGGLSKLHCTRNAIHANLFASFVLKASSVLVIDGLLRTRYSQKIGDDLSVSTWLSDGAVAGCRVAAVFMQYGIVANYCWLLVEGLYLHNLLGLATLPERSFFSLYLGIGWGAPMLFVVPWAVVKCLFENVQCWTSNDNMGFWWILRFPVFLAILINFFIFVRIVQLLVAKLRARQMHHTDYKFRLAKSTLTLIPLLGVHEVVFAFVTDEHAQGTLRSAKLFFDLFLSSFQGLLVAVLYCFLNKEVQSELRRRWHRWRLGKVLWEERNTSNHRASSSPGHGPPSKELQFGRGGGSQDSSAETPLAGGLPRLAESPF

Consider `CC[C@H](C)[C@H](NC(=O)[C@H](Cc1c[nH]c2ccccc12)NC(=O)[C@H](CCC(N)=O)NC(=O)[C@@H](NC(=O)[C@](C)(Cc1ccccc1)NC(=O)[C@H](CC(=O)O)NC(=O)[C@H](CCCCNC(=O)COCCOCCNC(=O)COCCOCCNC(=O)CC[C@H](NC(=O)CC[C@H](NC(=O)CCCCCCCCCCCCCCCCC(=O)O)C(=O)O)C(=O)O)NC(=O)[C@H](C)NC(=O)[C@H](C)NC(=O)[C@H](CCCNC(=N)N)NC(=O)[C@H](CO)NC(=O)[C@H](CC(=O)O)NC(=O)[C@H](CC(C)C)NC(=O)[C@](C)(Cc1ccccc1)NC(=O)[C@H](CCCCN)NC(=O)[C@H](CO)NC(=O)[C@@H](NC(=O)[C@H](CC(=O)O)NC(=O)[C@H](CO)NC(=O)[C@@H](NC(=O)[C@](C)(Cc1ccccc1)NC(=O)[C@H](CO)NC(=O)CNC(=O)[C@H](Cc1c[nH]cn1)NC(=O)C(C)(C)NC(=O)[C@@H](N)Cc1c[nH]cn1)[C@@H](C)O)C(C)C)C(C)C)C(=O)N[C@@H](C)C(=O)N[C@@H](CC(N)=O)C(=O)N[C@H](C(=O)NCC(N)=O)[C@@H](C)O` [Peptide 240] (H-H[Aib]HGS[αMeF]TSDVSK[αMeF]LDSRAAK([AEEA-AEEA-γGlu-γGlu-C18 diacid])D[αMeF]VQWIANTG-NH2), for which, in experiment [1], the EC50 came out at 0.0571 nM and the “% Relative Potency Ratio” value amounted to 11.5. Moreover, the concentration for a half-maximal effect (EC50) in experiment [2] came out at 0.332 nM.

As to `CC[C@H](C)[C@H](NC(=O)[C@H](Cc1c[nH]c2ccccc12)NC(=O)[C@H](CCC(N)=O)NC(=O)[C@@H](NC(=O)[C@](C)(Cc1ccccc1)NC(=O)[C@H](CC(=O)O)NC(=O)[C@H](CCCCNC(=O)COCCOCCNC(=O)COCCOCCNC(=O)CC[C@H](NC(=O)CC[C@H](NC(=O)CCCCCCCCCCCCCCCCC(=O)O)C(=O)O)C(=O)O)NC(=O)[C@H](C)NC(=O)[C@H](C)NC(=O)[C@H](CCCNC(=N)N)NC(=O)[C@H](CO)NC(=O)[C@H](CC(=O)O)NC(=O)[C@H](CC(C)C)NC(=O)[C@](C)(Cc1ccccc1)NC(=O)[C@H](CCCCN)NC(=O)[C@H](CO)NC(=O)[C@@H](NC(=O)[C@H](CC(=O)O)NC(=O)[C@H](CO)NC(=O)[C@@H](NC(=O)[C@](C)(Cc1ccccc1)NC(=O)[C@H](CO)NC(=O)CNC(=O)[C@H](Cc1c[nH]cn1)NC(=O)C(C)(C)NC(=O)[C@@H](N)Cc1c[nH]cn1)[C@@H](C)O)C(C)C)C(C)C)C(=O)N[C@@H](C)C(=O)N[C@@H](CC(N)=O)C(=O)N[C@H](C(=O)NCC(=O)NCC(N)=O)[C@@H](C)O` [Peptide 241] (H-H[Aib]HGS[αMeF]TSDVSK[αMeF]LDSRAAK([AEEA-AEEA-γGlu-γGlu-C18 diacid])D[αMeF]VQWIANTGG-NH2; N-terminus assumed), in experiment [1], the EC50 was 0.0358 nM and the “% Relative Potency Ratio” value turned out to be 9.7. Moreover, in experiment [2], the concentration giving a half-maximal response (EC50) is 0.175 nM.

Turning to `CC[C@H](C)[C@H](NC(=O)[C@H](CO)NC(=O)[C@H](CCC(N)=O)NC(=O)[C@@H](NC(=O)[C@H](Cc1ccccc1)NC(=O)[C@H](CC(=O)O)NC(=O)[C@H](CCCCNC(=O)COCCOCCNC(=O)COCCOCCNC(=O)CC[C@H](NC(=O)CC[C@H](NC(=O)CCCCCCCCCCCCCCCCCCC(=O)O)C(=O)O)C(=O)O)NC(=O)[C@H](C)NC(=O)C(C)(C)NC(=O)[C@H](CCCNC(=N)N)NC(=O)[C@H](CO)NC(=O)[C@H](CC(=O)O)NC(=O)[C@H](CC(C)C)NC(=O)[C@](C)(Cc1ccccc1)NC(=O)[C@H](CCCCN)NC(=O)[C@H](CO)NC(=O)[C@@H](NC(=O)[C@H](CC(=O)O)NC(=O)[C@H](CO)NC(=O)[C@@H](NC(=O)[C@](C)(Cc1ccccc1)NC(=O)[C@H](CO)NC(=O)CNC(=O)[C@H](Cc1c[nH]cn1)NC(=O)C(C)(C)NC(=O)[C@@H](N)Cc1c[nH]cn1)[C@@H](C)O)C(C)C)C(C)C)C(=O)N[C@@H](C)C(=O)N[C@@H](CC(N)=O)C(=O)N[C@H](C(N)=O)[C@@H](C)O` [Peptide 242] (H-H[Aib]HGS[αMeF]TSDVSK[αMeF]LDSR[Aib]AK([AEEA-AEEA-γGlu-γGlu-C20 diacid])DFVQSIANT-NH2; N-terminus assumed), in experiment [1], the EC50 is 0.249 nM and the “% Relative Potency Ratio” value was found to be 9.8. The EC50 in experiment [2] turned out to be 1.23 nM.

Consider `CC[C@H](C)[C@H](NC(=O)[C@H](CO)NC(=O)[C@H](CCC(N)=O)NC(=O)[C@@H](NC(=O)[C@](C)(Cc1ccccc1)NC(=O)[C@H](CC(=O)O)NC(=O)[C@H](CCCCNC(=O)COCCOCCNC(=O)COCCOCCNC(=O)CC[C@H](NC(=O)CCCCCCCCCCCCCCCCC(=O)O)C(=O)O)NC(=O)[C@H](C)NC(=O)[C@H](C)NC(=O)[C@H](CCCNC(=N)N)NC(=O)[C@H](CO)NC(=O)[C@H](CC(=O)O)NC(=O)[C@H](CC(C)C)NC(=O)[C@](C)(Cc1ccccc1)NC(=O)[C@H](CCCCN)NC(=O)[C@H](CO)NC(=O)[C@@H](NC(=O)[C@H](CC(=O)O)NC(=O)[C@H](CO)NC(=O)[C@@H](NC(=O)[C@](C)(Cc1ccccc1)NC(=O)[C@H](CO)NC(=O)CNC(=O)[C@H](Cc1c[nH]cn1)NC(=O)C(C)(C)NC(=O)[C@@H](N)Cc1c[nH]cn1)[C@@H](C)O)C(C)C)C(C)C)C(=O)N[C@@H](C)C(=O)N[C@@H](CC(N)=O)C(=O)N[C@H](C(N)=O)[C@@H](C)O` [Peptide 243] (H-H[Aib]HGS[αMeF]TSDVSK[αMeF]LDSRAAK([AEEA-AEEA-γGlu-C18 diacid])D[αMeF]VQSIANT-NH2), for which, in experiment [1], the half-maximal effective concentration (EC50) was 0.0593 nM and the “% Relative Potency Ratio” value was 1.7. In addition, the 50% effective concentration (EC50) in experiment [2] amounted to 0.0506 nM.

For `CC[C@H](C)[C@H](NC(=O)[C@H](CO)NC(=O)[C@H](CCC(N)=O)NC(=O)[C@@H](NC(=O)[C@](C)(Cc1ccccc1)NC(=O)[C@H](CC(=O)O)NC(=O)[C@H](CCCCNC(=O)COCCOCCNC(=O)COCCOCCNC(=O)CC[C@H](NC(=O)CC[C@H](NC(=O)CCCCCCCCCCCCCCCCCCC(=O)O)C(=O)O)C(=O)O)NC(=O)[C@H](C)NC(=O)[C@H](C)NC(=O)[C@H](CCCNC(=N)N)NC(=O)[C@H](CO)NC(=O)[C@H](CC(=O)O)NC(=O)[C@H](CC(C)C)NC(=O)[C@](C)(Cc1ccccc1)NC(=O)[C@H](CCCCN)NC(=O)[C@H](CO)NC(=O)[C@@H](NC(=O)[C@H](CC(=O)O)NC(=O)[C@H](CO)NC(=O)[C@@H](NC(=O)[C@](C)(Cc1ccccc1)NC(=O)[C@H](CO)NC(=O)CNC(=O)[C@H](Cc1c[nH]cn1)NC(=O)C(C)(C)NC(=O)[C@@H](N)Cc1c[nH]cn1)[C@@H](C)O)C(C)C)C(C)C)C(=O)N[C@@H](C)C(=O)N[C@@H](CC(N)=O)C(=O)N[C@H](C(N)=O)[C@@H](C)O` [Peptide 244] (H-H[Aib]HGS[αMeF]TSDVSK[αMeF]LDSRAAK([AEEA-AEEA-γGlu-γGlu-C20 diacid])D[αMeF]VQSIANT-NH2), in experiment [1], the EC50 is 0.143 nM and the “% Relative Potency Ratio” value was determined as 5.8. Besides, the EC50 in experiment [2] was found to be 0.42 nM.

Regarding `CC[C@H](C)[C@H](NC(=O)[C@H](CO)NC(=O)[C@H](CCC(=O)O)NC(=O)[C@@H](NC(=O)[C@](C)(Cc1ccccc1)NC(=O)[C@H](CC(=O)O)NC(=O)[C@H](CCCCNC(=O)COCCOCCNC(=O)COCCOCCNC(=O)CC[C@H](NC(=O)CCCCCCCCCCCCCCCCC(=O)O)C(=O)O)NC(=O)[C@H](C)NC(=O)[C@H](C)NC(=O)[C@H](CCCNC(=N)N)NC(=O)[C@H](CO)NC(=O)[C@H](CC(=O)O)NC(=O)[C@H](CC(C)C)NC(=O)[C@](C)(Cc1ccccc1)NC(=O)[C@H](CCCCN)NC(=O)[C@H](CO)NC(=O)[C@@H](NC(=O)[C@H](CC(=O)O)NC(=O)[C@H](CO)NC(=O)[C@@H](NC(=O)[C@](C)(Cc1ccccc1)NC(=O)[C@H](CO)NC(=O)CNC(=O)[C@H](Cc1c[nH]cn1)NC(=O)C(C)(C)NC(=O)[C@@H](N)Cc1c[nH]cn1)[C@@H](C)O)C(C)C)C(C)C)C(=O)N[C@@H](C)C(=O)N[C@@H](CC(N)=O)C(=O)N[C@H](C(N)=O)[C@@H](C)O` [Peptide 245] (H-H[Aib]HGS[αMeF]TSDVSK[αMeF]LDSRAAK([AEEA-AEEA-γGlu-C18 diacid])D[αMeF]VESIANT-NH2), in experiment [1], the EC50 is 0.11 nM and the “% Relative Potency Ratio” value came out at 1.1. In addition, the EC50 in experiment [2] came out at 0.0627 nM.

Turning to `CC[C@H](C)[C@H](NC(=O)[C@H](CO)NC(=O)[C@H](CCC(=O)O)NC(=O)[C@@H](NC(=O)[C@](C)(Cc1ccccc1)NC(=O)[C@H](CC(=O)O)NC(=O)[C@H](CCCCNC(=O)COCCOCCNC(=O)COCCOCCNC(=O)CC[C@H](NC(=O)CC[C@H](NC(=O)CCCCCCCCCCCCCCCCCCC(=O)O)C(=O)O)C(=O)O)NC(=O)[C@H](C)NC(=O)[C@H](C)NC(=O)[C@H](CCCNC(=N)N)NC(=O)[C@H](CO)NC(=O)[C@H](CC(=O)O)NC(=O)[C@H](CC(C)C)NC(=O)[C@](C)(Cc1ccccc1)NC(=O)[C@H](CCCCN)NC(=O)[C@H](CO)NC(=O)[C@@H](NC(=O)[C@H](CC(=O)O)NC(=O)[C@H](CO)NC(=O)[C@@H](NC(=O)[C@](C)(Cc1ccccc1)NC(=O)[C@H](CO)NC(=O)CNC(=O)[C@H](Cc1c[nH]cn1)NC(=O)C(C)(C)NC(=O)[C@@H](N)Cc1c[nH]cn1)[C@@H](C)O)C(C)C)C(C)C)C(=O)N[C@@H](C)C(=O)N[C@@H](CC(N)=O)C(=O)N[C@H](C(N)=O)[C@@H](C)O` [Peptide 246] (H-H[Aib]HGS[αMeF]TSDVSK[αMeF]LDSRAAK([AEEA-AEEA-γGlu-γGlu-C20 diacid])D[αMeF]VESIANT-NH2), the concentration for a half-maximal effect (EC50) in experiment [1] turned out to be 0.32 nM; in experiment [2], 0.557 nM. The “% Relative Potency Ratio” value in experiment [1] worked out at 3.4.
